How the values were obtained:
[1] = test system: 3 human cancer cell lines established from Head & Neck (HNSCC); assay: MTT cell proliferation assay on HNSCC cell lines; type: cell-based; settings: MTT assay after 72 hours of treatment, FIG. 2
Procedure: (§1) Compound I-43b has been tested in 3 human cancer cell lines established from Head & Neck (HNSCC) and in 4 human cancer cell lines established hepatocarcinoma (HCC). […] Cell proliferation has been evaluated using the MTT assay after 72 hours of treatment.

[2] = test system: 4 human cancer cell lines established hepatocarcinoma (HCC); assay: MTT cell proliferation assay on HCC cell lines; type: cell-based; settings: MTT assay after 72 hours of treatment, FIG. 2
Procedure: as §1

[3] = test system: NCI 60 cell lines; assay: NCI 60 tumor cell line panel (SRB); type: cell-based, human; settings: concentration of 10 μM, 48 h, FIG. 3
Procedure: Compound I-43b has been tested in the NCI 60 cell line panel. This screen utilizes 60 different human tumor cell lines, representing leukemia, melanoma, lung cancer, colon cancer, CNS cancer, ovarian cancer, breast cancer, prostate cancer and renal cancer.
The 60 human tumor cell lines of the cancer screening panel are grown in RPMI 1640 medium containing 5% fetal bovine serum and 2 mM L-glutamine. For a typical screening experiment, cells are inoculated into 96 well microtiter plates in 100 μL at plating densities ranging from 5,000 to 40,000 cells/well depending on the doubling time of individual cell lines. […]
Following drug addition, the plates are incubated for an additional 48 h at 37° C., 5% CO2, 95% air, and 100% relative humidity. […] Bound stain is subsequently solubilized with 10 mM trizma base, and the absorbance is read on an automated plate reader at a wavelength of 515 nm. […] Using the seven absorbance measurements [time zero (Tz), control growth (C), and test growth in the presence of drug at the five concentration levels (Ti)], the percentage growth is calculated at each of the drug concentrations levels. Percentage growth inhibition is calculated as: [(Ti−Tz)/(C−Tz)]×100 for concentrations for which Ti>/=Tz [(Ti−Tz)/Tz]×100 for concentrations for which Ti<Tz.
Three dose response parameters are calculated for each experimental agent. […]

In the case of `Cc1cc(Oc2ccccc2)ccc1N(C(=O)CCl)[C@H](C(=O)N1CCN[C@@H](C)C1)c1cccs1` (single isomer, unassigned) [Example I-43b], the “cell proliferation inhibition, HNSCC cell lines” value [1] is reported as “inhibited cell proliferation in a concentration dependent manner”, the “cell proliferation inhibition, HCC cell lines” value [2] is reported as “inhibited cell proliferation in a concentration dependent manner” and the “growth inhibition of NCI 60 tumor cell lines, single dose screen” value [3] is reported as “selective growth inhibition on all these tumor cell lines”.
